According to ChEMBL document CHEMBL5149962, “Targeting KRAS mutant cancers by preventing signaling transduction in the MAPK pathway” (Eur J Med Chem, 2021):
Where a SMILES comes first, the peptide text is derived from it. Bridges are numbered along the chain shown (N, C = ends). [ ]: non-standard residue; d: D form. S5 = C=CCCC[C@](C)(N)C(=O)O

Key:
GTPase KRas [1] = molecular target: GTPase KRas (Homo sapiens, UniProt P01116, G12C); assay: Inhibition of KRAS G12C mutant (unknown origin)
[2] = Inhibition of human N-terminal His-tagged recombinant wild-type KRAS (1 to 156 residues) expressed in Escherichia coli BL21 (DE3)/SAH-SOS1A by fluorescence based polarization assay
[3] = Lipophilicity, logP of the compound; type: physicochemical; settings: octanol/water
SW480 = assay: Antiproliferative activity against human SW480 cells assessed as cell growth inhibition by CCK-8 assay relative to control; type: functional
HCT-116 = assay: Antiproliferative activity against human HCT-116 cells harboring KRAS G13D mutant assessed as cell growth inhibition measured after 96 hrs by MTT assay; type: functional
GTPase KRas [4] = molecular target: GTPase KRas (Homo sapiens, UniProt P01116); assay: Binding affinity to KRAS (unknown origin) assessed as dissociation constant
GTPase KRas [5] = molecular target: GTPase KRas (Homo sapiens, UniProt P01116, G12V); assay: Binding affinity to GDP-bound KRAS G12V RAS mutant (unknown origin)
[6] = Binding affinity to recombinant human KRAS (1 to 169 residues) expressed in Escherichia coli - recombinant human SOS1 (560 to 1049 residues) expressed in Escherichia coli assessed as dissociation constant
GTPase HRas = GTPase HRas (Homo sapiens, UniProt P01112); assay: Inhibition of human p21 h-RAS assessed as reduction in C-Cdc25 stimulated nucleotide exchange by luminescence spectrometer based analysis
Chain of GTPase HRas (P01112 whole entry): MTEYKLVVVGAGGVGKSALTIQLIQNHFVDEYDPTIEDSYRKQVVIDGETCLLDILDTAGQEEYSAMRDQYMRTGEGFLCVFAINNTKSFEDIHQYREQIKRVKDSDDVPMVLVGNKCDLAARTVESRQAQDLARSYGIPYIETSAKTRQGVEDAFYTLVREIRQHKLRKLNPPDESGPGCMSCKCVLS

Chain of GTPase KRas (Homo sapiens, UniProt P01116, G12V) (P01116 whole entry G12V, the tested form may be a part): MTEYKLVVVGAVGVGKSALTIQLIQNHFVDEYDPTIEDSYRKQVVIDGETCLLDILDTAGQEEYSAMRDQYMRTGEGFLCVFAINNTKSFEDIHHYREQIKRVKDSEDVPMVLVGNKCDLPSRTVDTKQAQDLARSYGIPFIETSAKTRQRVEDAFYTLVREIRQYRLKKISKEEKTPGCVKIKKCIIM
Chain of GTPase KRas (Homo sapiens, UniProt P01116) (P01116 whole entry): as the sequence (P01116 whole entry G12V, the tested form may be a part) above, with V12G counted along it
Chain of GTPase KRas (Homo sapiens, UniProt P01116, G12C) (P01116 whole entry G12C, the tested form may be a part): as the sequence (P01116 whole entry G12V, the tested form may be a part) above, with V12C counted along it

C=CC(=O)N1CCN(c2nc(NCCC(=O)N(C)C)nc3c(F)c(-c4cc(O)cc5ccccc45)c(Cl)cc23)CC1
IC50 (GTPase KRas [1]): 0.726 µM

CC[C@H](C)[C@H](NC(=O)CNC(=O)[C@H](Cc1ccccc1)NC(=O)[C@@H](N)Cc1ccccc1)C(=O)N[C@@H](Cc1ccc(O)cc1)C(=O)N[C@@H](CC(C)C)C(=O)N[C@H](C(=O)N[C@@H](CC(N)=O)C(=O)N[C@@]1(C)CCC/C=C\CCC[C@@](C)(C(=O)N[C@@H](CCC(=O)O)C(=O)NCC(=O)N[C@@H](CC(N)=O)C(=O)O)NC(=O)[C@H]([C@@H](C)O)NC(=O)[C@H](CCCCN)NC(=O)[C@H](CC(C)C)NC1=O)[C@@H](C)O
EC50 [2]: 0.1 µM

CC[C@H](C)[C@H](NC(=O)[C@]1(C)CCC/C=C\CCC[C@](C)(NC(=O)CNC(=O)[C@H](Cc2ccccc2)NC(=O)[C@@H](N)Cc2ccccc2)C(=O)N[C@@H](Cc2ccc(O)cc2)C(=O)N[C@@H](CC(C)C)C(=O)N[C@@H]([C@@H](C)O)C(=O)N1)C(=O)N[C@@H](CC(C)C)C(=O)N[C@@H](CCCCN)C(=O)N[C@H](C(=O)N[C@@H](CCC(=O)O)C(=O)N[C@@H](CCC(=O)O)C(=O)NCC(=O)N[C@@H](CC(N)=O)C(=O)O)[C@@H](C)O
EC50 [2]: 0.1 µM

CC[C@H](C)[C@H](NC(=O)CNC(=O)[C@H](Cc1ccccc1)NC(=O)[C@@H](N)Cc1ccccc1)C(=O)N[C@@]1(C)CCC/C=C\CCC[C@@](C)(C(=O)N[C@@H](CC(C)C)C(=O)N[C@@H](CCCCN)C(=O)N[C@H](C(=O)N[C@@H](CCC(=O)O)C(=O)N[C@@H](CCC(=O)O)C(=O)NCC(=O)N[C@@H](CC(N)=O)C(=O)O)[C@@H](C)O)NC(=O)[C@H](CC(N)=O)NC(=O)[C@H]([C@@H](C)O)NC(=O)[C@H](CC(C)C)NC1=O
EC50 [2]: 0.1 µM

C=C1CC[C@@H]2[C@]3(C)COC(c4cccc(Br)c4)O[C@@H]3CC[C@@]2(C)[C@@H]1C/C=C1/C(=O)OC[C@H]1O (stereo partly specified)
logP [3]: 2.6

CC[C@H](C)[C@@H]1NC(=O)CNC(=O)[C@@](C)(NC(=O)[C@@H](N)Cc2ccccc2)CCC/C=C\CCC[C@@](C)(C(=O)N[C@H](C(=O)N[C@@H](C)C(=O)N[C@H](C(=O)N[C@@H](CC(C)C)C(=O)N[C@@H](CCCCN)C(=O)N[C@H](C(=O)N[C@@H](CCC(=O)O)C(=O)N[C@@H](CCC(=O)O)C(=O)NCC(=O)N[C@@H](CC(N)=O)C(=O)O)[C@@H](C)O)[C@@H](C)CC)[C@@H](C)O)NC(=O)[C@H](Cc2ccc(O)cc2)NC1=O (H-F[S5]GIY[S5]TAILKTEEGN-OH; staple (Z) 2-6)
EC50 [2]: 0.1 µM

CNC(=O)c1cc(Oc2ccc(NC(=O)Nc3ccc(Cl)c(C(F)(F)F)c3)cc2)ccn1 [SORAFENIB]
inhibition (INH) (SW480): 83.8%

C=C1CC[C@@H]2[C@]3(C)COC(c4ccc(F)c(Br)c4)O[C@@H]3CC[C@@]2(C)[C@@H]1C/C=C1/C(=O)OC[C@H]1O (stereo partly specified)
logP [3]: 2.6 | GI50 (HCT-116): 4 µM

C=C1CC[C@@H]2[C@]3(C)COC(c4ccccc4Br)O[C@@H]3CC[C@@]2(C)[C@@H]1C/C=C1/C(=O)OC[C@H]1O (stereo partly specified)
logP [3]: 2.6 | GI50 (HCT-116): 3.1 µM

c1ccc2[nH]cnc2c1 [BENZIMIDAZOLE]
Kd (GTPase KRas [4]): 1500 µM

Nc1nc2c(ncn2CCN(CCOc2ccc3ccccc3c2)S(=O)(=O)c2ccc(NO)cc2)c(=O)[nH]1
IC50 (GTPase KRas [5]): 0.5 µM

C=C1CC[C@@H]2[C@](C)(CO)[C@H](O)CC[C@@]2(C)[C@@H]1C/C=C1/C(=O)OC[C@H]1O [ANDROGRAPHOLIDE]
GI50 (HCT-116): 4.5 µM

CNCc1ccccc1-c1csc([C@@H](C)Nc2nc(C)nc3cc(OC)c(OC)cc23)c1 [BAY-293]
Kd [6]: 0.036 µM

[O-][S+](NC[C@@H]1CC2O[C@H](OCc3ccccc3)[C@@H](OCc3ccccc3)C2O1)c1ccc(NO)cc1 (stereo partly specified)
IC50 (GTPase HRas): 35.5 µM

Cc1[nH]c2cc(Cl)cc(Cl)c2c1CCN
Kd (GTPase KRas [4]): 1100 µM

Cc1ccc(NC(=S)NNc2c([N+](=O)[O-])cc(C(F)(F)F)cc2[N+](=O)[O-])cc1Cl
inhibition (INH) (SW480): 66.3%

O=S(=O)(c1ccc(NO)cc1)N(CCOc1ccc2ccccc2c1)[C@@H]1O[C@H](CO)[C@@H](O)[C@H](O)[C@H]1O
IC50 (GTPase KRas [5]): 0.7 µM

O=S(=O)(NCCOc1ccc2ccccc2c1)c1ccc(NO)cc1
IC50 (GTPase KRas [5]): 0.5 µM | IC50 (GTPase HRas): 56 µM
